Measurements taken from US10188615B2, “Alkoxy compounds for disease treatment” (Acucela Inc., priority 2007, dated 2019).
pIC50: −log10 of the molar value.

Tests used:
[1] = target: isomerase (Mus musculus (Mouse), UniProt Q91ZQ5); assay: In vivo murine isomerase assay (recovery of 11-cis-retinal after photobleaching); design: species or system mice; conditions: read-out: % Inhibition 1 mg/kg, 4 h
Protocol: The capability of compounds described herein to inhibit isomerase was determined by an in vivo murine isomerase assay. Brief exposure of the eye to intense light (“photobleaching” of the visual pigment or simply “bleaching”) is known to photo-isomerize almost all 11-cis-retinal in the retina. The recovery of 11-cis-retinal after bleaching can be used to estimate the activity of isomerase in vivo. Delayed recovery, as represented by lower 11-cis-retinal oxime levels, indicates inhibition of isomerization reaction.
The mice were allowed to recover 2 hours in the dark. The animals were then sacrificed by carbon dioxide inhalation. Retinoids were extracted from the eye and the regeneration of 11-cis-retinal was assessed at various time intervals.
After the mice were sacrificed, the eyes were immediately removed and placed in liquid nitrogen for storage.
The eyes were placed in 500 μL of bis-tris propane buffer (10 mM, pH ˜7.3) and 20 µL of 0.8M hydroxile amine (pH-7.3). The eyes were cut up into small pieces with small iris scissors and then thoroughly homogenized at 30000 rpm with a mechanical homogenizer (Polytron PT 1300 D) in the tube until no visible tissue remained. 500 μL of methanol and 500 μL of heptane were added to each tube. The tubes were attached to a vortexer so that the contents were mixed thoroughly for 15 minutes in room temperature. The organic phase was separated from the aqueous phase by centrifugation for 10 min at 13K rpm, 4° C. 240 μL of the solution from the top layer (organic phase) was removed and transferred to clean 300 μl glass inserts in HPLC vials using glass pipette and the vials were crimped shut tightly.
Loading volume for each sample is 100 μl; detection wavelength is 360 nm. The area under the curve for 11-cis retinal oxime was calculated by Agilent Chemstation software and was recorded manually. Data processing was performed using Prizm software.
Positive control mice (no compound administered) were sacrificed fully dark-adapted and the eye retinoids analyzed. Light (bleached) control mice (no compound administered) were sacrificed and retinoids isolated and analyzed immediately after light treatment.
Mice were sacrificed 2 hours after bleaching, eyes were enucleated, and retinoid content was analyzed by HPLC.
Recovery control mice (vehicle-only treated) were light-treated and left to recover for 2 hours in the dark before sacrifice and analysis. Light control mice (vehicle only treated) were sacrificed for analysis immediately after photo-bleaching.

[2] = target: visual cycle isomerase (Bos taurus (Bovine), UniProt Q28175); assay: Bovine in vitro isomerase inhibition assay (RPE microsome membranes); conditions: Bovine in vitro Inhibition data; inhibition of 11-cis retinol formation; bovine RPE microsomes, 20 μM all-trans retinol, 37° C., 30 minutes; given as ranges
Sequence of visual cycle isomerase (Q28175 2-533): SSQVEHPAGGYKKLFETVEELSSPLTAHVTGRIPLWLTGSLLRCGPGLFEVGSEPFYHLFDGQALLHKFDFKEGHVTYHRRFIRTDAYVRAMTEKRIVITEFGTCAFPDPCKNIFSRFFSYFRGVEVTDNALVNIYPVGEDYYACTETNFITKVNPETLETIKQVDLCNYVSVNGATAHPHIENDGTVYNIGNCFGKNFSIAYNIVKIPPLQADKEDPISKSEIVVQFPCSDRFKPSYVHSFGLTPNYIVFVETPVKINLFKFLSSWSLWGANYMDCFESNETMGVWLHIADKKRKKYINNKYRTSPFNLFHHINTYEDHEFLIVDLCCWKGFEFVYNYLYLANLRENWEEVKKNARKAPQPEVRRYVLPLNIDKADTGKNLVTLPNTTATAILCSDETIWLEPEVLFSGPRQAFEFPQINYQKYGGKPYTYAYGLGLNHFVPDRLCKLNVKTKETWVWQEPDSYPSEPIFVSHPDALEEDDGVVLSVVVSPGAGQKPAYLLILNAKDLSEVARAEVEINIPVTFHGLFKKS
Protocol: The capability of compounds disclosed herein to inhibit the activity of a visual cycle isomerase was determined.
All tests were performed in duplicate.

[3] = target: recombinant human RPE65 and LRAT (Homo sapiens (Human), UniProt Q16518); assay: Human in vitro isomerase inhibition assay; assay type: biochemical; conditions: Human in vitro Inhibition data; inhibition of 11-cis-retinol formation; HEK293 homogenate, all-trans-retinol about 20 μM, 37° C., one hour; given as ranges
Sequence of recombinant human RPE65 and LRAT (Q16518 2-533): as the sequence (Q28175 2-533) above, with S2I, I135V, V154I, I299L, H320N, E321G, G426C counted along it
Protocol: The concentration dependent effect of the compounds disclosed herein on the retinol isomerization reaction was also evaluated with a recombinant human enzyme system. […] A homogenate of HEK293 cell clone expressing recombinant human RPE65 and LRAT were the source of the visual enzymes, and exogenous all-trans-retinol (about 20 μM) was used as the substrate. Recombinant human CRALBP (about 80 ug/mL) was added to enhance the formation of 11 cis-retinal. The 200 μL Bis-Tris Phosphate buffer (10 mM, pH 7.2) based reaction mixture also contains 0.5% BSA, and 1 mM NaPPi. In this assay, the reaction was carried out at 37° C. in duplicates for one hour and was terminated by addition of 300 μL methanol. The amount of reaction product, 11-cis-retinol, was measured by HPLC analysis following Heptane extraction of the reaction mixture. […] The ability of the numerous compounds disclosed herein to inhibit isomerization reaction is quantified and the respective IC50 value is determined.

Sequence of isomerase (Q91ZQ5 whole entry): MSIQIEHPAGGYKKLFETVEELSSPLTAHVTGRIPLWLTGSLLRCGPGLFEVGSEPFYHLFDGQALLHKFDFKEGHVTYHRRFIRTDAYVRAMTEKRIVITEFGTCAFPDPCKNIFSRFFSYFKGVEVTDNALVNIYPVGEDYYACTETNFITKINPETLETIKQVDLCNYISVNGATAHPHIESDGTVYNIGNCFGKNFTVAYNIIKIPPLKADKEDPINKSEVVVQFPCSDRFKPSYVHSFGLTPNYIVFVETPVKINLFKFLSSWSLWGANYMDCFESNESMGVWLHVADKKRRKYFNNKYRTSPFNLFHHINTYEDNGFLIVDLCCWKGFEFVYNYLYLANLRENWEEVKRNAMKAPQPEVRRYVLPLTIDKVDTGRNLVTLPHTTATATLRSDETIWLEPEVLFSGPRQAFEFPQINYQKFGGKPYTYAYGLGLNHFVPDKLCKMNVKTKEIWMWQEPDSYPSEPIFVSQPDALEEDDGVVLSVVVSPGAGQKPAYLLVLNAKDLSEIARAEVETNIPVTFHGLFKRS

inhibition at 1 mg/kg [1] | pIC50 [2] | pIC50 [3] | Structure (SMILES)
59% | ≥ 6.00 | – | NCCC(O)c1cccc(OCC2(O)CCCCC2)c1 (centres unmarked) [Example 12, 1-((3-(3-Amino-1-Hydroxypropyl)Phenoxy)Methyl)Cyclohexanol]
41% | ≥ 6.00 | ≥ 8.00 | NCCC(O)c1cccc(OCC2(O)CCCCCC2)c1 (centres unmarked) [Example 13, 1-((3-(3-Amino-1-Hydroxypropyl)Phenoxy)Methyl)Cycloheptanol]
89% | ≥ 6.00 | – | NCCCc1cccc(OCC2CCCCCC2)c1 [Example 14, 3-(3-(Cycloheptylmethoxy)phenyl)propan-1-amine]
91% | ≥ 6.00 | ≥ 8.00 | NCCC(O)c1cccc(OCC2CCCCCC2)c1 (centres unmarked) [Example 15, 3-Amino-1-(3-(cycloheptylmethoxy)phenyl)propan-1-ol]
60% | ≥ 6.00 | – | NCCC(=O)c1cccc(OCC2CCCCCC2)c1 [Example 16, 3-amino-1-(3-(cycloheptylmethoxy)phenyl)propan-1-one]
96% | ≥ 6.00 | ≥ 8.00 | CCCC(CCC)COc1cccc(C(O)CCN)c1 (centres unmarked) [Example 17, 3-Amino-1-(3-(2-propylpentyloxy)phenyl)propan-1-ol]
98% | ≥ 6.00 | – | CCCC(O)(CCC)COc1cccc(C(O)CCN)c1 (centres unmarked) [Example 20, 4-((3-(3-Amino-1-hydroxypropyl)phenoxy)methyl)heptan-4-ol]
